Laboratory results reported in article PMC5681922, “Systemic Responses of Multidrug-Resistant Pseudomonas aeruginosa and Acinetobacter baumannii Following Exposure to the Antimicrobial Peptide Cathelicidin-BF Imply Multiple Intracellular Targets” (Frontiers in Cellular and Infection Microbiology, 2017).

Experiments:
[1] = test system: P. aeruginosa 1409; experiment: Membrane permeabilization assay (propidium iodide); type: cell-based, Pseudomonas aeruginosa; settings: 1 h at 25°C in LB, then PI 10 μg/mL 30 min, fluorescence microscope
Method: Then, PI was added to a final concentration of 10 μg/mL. After 30 min of incubation at 25°C, the cells were washed 3 times with PBS and immediately imaged with a fluorescence microscope (Olympus, Japan) (Yu et al., [2015]).
Figure 3 Bacterial plasma membrane permeabilization assay of cathelicidin-BF. Cathelicidin-BF and levofloxacin were incubated with MDR P. aeruginosa in Luria-Bertani medium at final concentrations of 4 × MIC (minimal inhibitory concentration) or ¼ × MIC. After incubation at 25°C for 1 h, bacteria were collected by centrifugation at 3,000 × g for 5 min and resuspended with PBS. The DNA-binding fluorescent dye PI was added to a final concentration of 10 μg/mL. After 30 min incubation at 25°C, the cells were washed 3 times with PBS and immediately imaged using a fluorescence microscope.

[2] = test system: P. aeruginosa 1409; experiment: Minimal inhibitory concentration (given as multiples of MIC); type: cell-based, Pseudomonas aeruginosa; settings: MDR clinical isolate; MIC itself not given, only this multiple
[3] = test system: P. aeruginosa 1409; settings: treated vs untreated, iTRAQ
[4] = cathelicidin-BF at 1/2 MIC (4 μg/mL), 37°C, 2 h
[5] = cathelicidin-BF change not categorized as differentially expressed

## C[C@H]1COc2c(N3CCN(C)CC3)c(F)cc3c(=O)c(C(=O)O)cn1c23 [levofloxacin, reference compound]
[1]; 4 × MIC (cathelicidin-BF 32 μg/mL, levofloxacin 64 μg/mL)
  integrity of bacterial membranes, PI staining at 4 × MIC: showed red fluorescence
[1]; ¼ × MIC (cathelicidin-BF 2 μg/mL, levofloxacin 4 μg/mL)
  integrity of bacterial membranes, PI staining at ¼ × MIC: no red dyes were detected
[2]
  4 × MIC: 64 µg/mL
[3]; [4]
  expression of protein Q9HVA1 (acetolactate synthase isozyme III small subunit): overexpressed
  expression of protein Q9I3S7 (likely decarboxylase): overexpressed
[3]; [5]
  expression of protein Q9HTV3 (3-octaprenyl-4-hydroxybenzoate carboxy-lyase): downregulated
  expression of protein Q9I298 (putative 3-methylglutaconyl-ConA hydratase): downregulated
[3]; levofloxacin change not categorized as differentially expressed
  expression of protein Q9I5V3 (multifunctional CCA protein): downregulated
